Earlier results, collected in US20120322868A1, “FOOD PRODUCTS, PREPARATION, AND THERAPEUTIC METHODS” (priority 2010, published 2012).

What was measured:
[1] = test system: insulin levels and insulin sensitivity; details: hyperinsulinemic patients with polycystic ovary syndrome
[2] = test system: immunological functions and plasma albumin; details: HIV+ patients
atherosclerosis = details: apolipoprotein E-deficient mice
cancer = details: dietary protein, laboratory animals (Campbell)

Compound | insulin levels and insulin sensitivity [1] | immunological functions and plasma albumin concentrations [2] | atherosclerosis (atherosclerosis) | promotion of cancer (cancer)
CC(=O)N[C@@H](CS)C(=O)O [NAC, N-acetyl-L-cysteine] | improves insulin levels and insulin sensitivity | marked increase | reduce atherosclerosis | –
casein | – | – | – | promotes cancer
